# Measurements as given in publication PMC11494501, “AlphaFold Ensemble Competition Screens Enable Peptide Binder Design with Single-Residue Sensitivity” (ACS Chemical Biology, 2024).
# Residues, ends and D or L forms follow the SMILES beside them. *: point of attachment. FITC = O=C1OC2(c3ccc(O)cc3Oc3cc(O)ccc32)c2ccc(NC(=S)*)cc21; βAla = NCCC(=O)O
# Biological target: T1, Ub (Homo sapiens, UniProt P0CG48)
# Assay: not given
# Conditions: read-out: dissociation constant of Ub:UIM-1 complex; cited from earlier work
# Excerpt: We selected the UIM-1 sequence as an experimental model system because it is well characterized, having both the reported dissociation constant and NMR structure (pdb: 1q0w, Figure 1a,c). […] The UIM-1 sequence binds to Ub primarily through a series of hydrophobic contacts around the characteristic “AxxxS” UIM pattern of alanine and serine residues spaced four positions apart. Further, polar and salt bridge contacts may also stabilize the complex. […] The peptide concentration was mainta ...
row,Compound,Kd [µM]
1,UIM-1: first UIM of the Vps27 protein; literature Kd from a slightly longer variant of the peptide,277

# Biological target: T1, Ub
# Assay: Fluorescence polarization (FP) titration of labelled peptide against Ub
# Conditions: 1c (C-terminal Lys side-chain label) relative to 1a (N-terminal label), from FP Kd
row,Compound,reduction in binding energy [kJ mol^–1]
1,CC[C@H](C)[C@H](NC(=O)[C@H](C)NC(=O)[C@H](CCCCN)NC(=O)[C@H](CCCNC(=N)N)NC(=O)[C@@H](NC(=O)[C@H](CC(C)C)NC(=O)[C@H](CCC(=O)O)NC(=O)[C@H](CCC(=O)O)NC(=O)[C@H](CCC(=O)O)NC(=O)[C@H](CC(=O)O)NC(=O)[C@H](CCC(=O)O)NC(=O)CNC(C)=O)[C@@H](C)CC)C(=O)N[C@@H](CCC(=O)O)C(=O)N[C@@H](CC(C)C)C(=O)N[C@@H](CO)C(=O)N[C@@H](CC(C)C)C(=O)N[C@@H](CCCCN)C(=O)N[C@@H](CCC(=O)O)C(=O)N[C@@H](CO)C(=O)NCC(=O)N[C@@H](CCCCNC(=S)Nc1ccc2c(c1)C(=O)OC21c2ccc(O)cc2Oc2cc(O)ccc21)C(N)=O [1c] (Ac-GEDEEELIRKAIELSLKESGK(FITC)-NH2),6.5

# Same assay, conditions: relative to 1a (UIM-1), from FP Kd; positive = weaker binding
row,Compound,ΔΔG for binding Ub [kcal/mol]
1,CC[C@H](C)[C@H](NC(=O)[C@H](C)NC(=O)[C@H](CCCCN)NC(=O)[C@H](CCCNC(=N)N)NC(=O)[C@H](C)NC(=O)[C@H](CC(C)C)NC(=O)[C@H](CCC(=O)O)NC(=O)[C@H](CCC(=O)O)NC(=O)[C@H](CCC(=O)O)NC(=O)[C@H](CC(=O)O)NC(=O)[C@H](CCC(=O)O)NC(=O)CNC(=O)CCNC(=S)Nc1ccc2c(c1)C(=O)OC21c2ccc(O)cc2Oc2cc(O)ccc21)C(=O)N[C@@H](CCC(=O)O)C(=O)N[C@@H](CC(C)C)C(=O)N[C@@H](CO)C(=O)N[C@@H](CC(C)C)C(=O)N[C@@H](CCCCN)C(=O)N[C@@H](CCC(=O)O)C(=O)N[C@@H](CO)C(=O)NCC(N)=O [3a] ({FITC-βAla}-GEDEEELARKAIELSLKESG-NH2),1.89
2,CC[C@H](C)[C@H](NC(=O)[C@H](CC(C)C)NC(=O)[C@H](CCC(=O)O)NC(=O)[C@H](CCC(=O)O)NC(=O)[C@H](CCC(=O)O)NC(=O)[C@H](CC(=O)O)NC(=O)[C@H](CCC(=O)O)NC(=O)CNC(=O)CCNC(=S)Nc1ccc2c(c1)C(=O)OC21c2ccc(O)cc2Oc2cc(O)ccc21)C(=O)N[C@@H](CCCNC(=N)N)C(=O)N[C@@H](CCCCN)C(=O)N[C@@H](C)C(=O)N[C@@H](C)C(=O)N[C@@H](CCC(=O)O)C(=O)N[C@@H](CC(C)C)C(=O)N[C@@H](CO)C(=O)N[C@@H](CC(C)C)C(=O)N[C@@H](CCCCN)C(=O)N[C@@H](CCC(=O)O)C(=O)N[C@@H](CO)C(=O)NCC(N)=O [4a] ({FITC-βAla}-GEDEEELIRKAAELSLKESG-NH2),1.67
3,CC[C@H](C)[C@H](NC(=O)[C@H](C)NC(=O)[C@H](CCCCN)NC(=O)[C@H](CCCNC(=N)N)NC(=O)[C@@H](NC(=O)[C@H](CC(C)C)NC(=O)[C@H](CCC(=O)O)NC(=O)[C@H](CCC(=O)O)NC(=O)[C@H](CCC(=O)O)NC(=O)[C@H](CC(=O)O)NC(=O)[C@H](CCC(=O)O)NC(=O)CNC(=O)CCNC(=S)Nc1ccc2c(c1)C(=O)OC21c2ccc(O)cc2Oc2cc(O)ccc21)[C@@H](C)CC)C(=O)N[C@@H](CCC(=O)O)C(=O)N[C@@H](C)C(=O)N[C@@H](CO)C(=O)N[C@@H](CC(C)C)C(=O)N[C@@H](CCCCN)C(=O)N[C@@H](CCC(=O)O)C(=O)N[C@@H](CO)C(=O)NCC(N)=O [5a] ({FITC-βAla}-GEDEEELIRKAIEASLKESG-NH2),0.239
4,CC[C@H](C)[C@H](NC(=O)[C@H](C)NC(=O)[C@H](CCCCN)NC(=O)[C@H](CCCNC(=N)N)NC(=O)[C@@H](NC(=O)[C@H](CC(C)C)NC(=O)[C@H](CCC(=O)O)NC(=O)[C@H](CCC(=O)O)NC(=O)[C@H](CCC(=O)O)NC(=O)[C@H](CC(=O)O)NC(=O)[C@H](CCC(=O)O)NC(=O)CNC(=O)CCNC(=S)Nc1ccc2c(c1)C(=O)OC21c2ccc(O)cc2Oc2cc(O)ccc21)[C@@H](C)CC)C(=O)N[C@@H](CCC(=O)O)C(=O)N[C@@H](CC(C)C)C(=O)N[C@@H](CO)C(=O)N[C@@H](C)C(=O)N[C@@H](CCCCN)C(=O)N[C@@H](CCC(=O)O)C(=O)N[C@@H](CO)C(=O)NCC(N)=O [6a] ({FITC-βAla}-GEDEEELIRKAIELSAKESG-NH2),1.12
5,CC[C@H](C)[C@H](NC(=O)[C@H](C)NC(=O)[C@H](CCCCN)NC(=O)[C@H](CCCNC(=N)N)NC(=O)[C@@H](NC(=O)[C@H](CCC(=O)O)NC(=O)[C@H](CCC(=O)O)NC(=O)[C@H](CCC(=O)O)NC(=O)[C@H](CCC(=O)O)NC(=O)[C@H](CC(=O)O)NC(=O)[C@H](CCC(=O)O)NC(=O)CNC(=O)CCNC(=S)Nc1ccc2c(c1)C(=O)OC21c2ccc(O)cc2Oc2cc(O)ccc21)[C@@H](C)CC)C(=O)N[C@@H](CCC(=O)O)C(=O)N[C@@H](CC(C)C)C(=O)N[C@@H](CO)C(=O)N[C@@H](CC(C)C)C(=O)N[C@@H](CCCCN)C(=O)N[C@@H](CCC(=O)O)C(=O)N[C@@H](CO)C(=O)NCC(N)=O [7a] ({FITC-βAla}-GEDEEEEIRKAIELSLKESG-NH2),0.669
6,CC[C@H](C)[C@H](NC(=O)[C@H](C)NC(=O)[C@H](CCCCN)NC(=O)[C@H](CCCNC(=N)N)NC(=O)[C@H](Cc1ccccc1)NC(=O)[C@H](CC(C)C)NC(=O)[C@H](CCC(=O)O)NC(=O)[C@H](CCC(=O)O)NC(=O)[C@H](CCC(=O)O)NC(=O)[C@H](CC(=O)O)NC(=O)[C@H](CCC(=O)O)NC(=O)CNC(=O)CCNC(=S)Nc1ccc2c(c1)C(=O)OC21c2ccc(O)cc2Oc2cc(O)ccc21)C(=O)N[C@@H](CCC(=O)O)C(=O)N[C@@H](CC(C)C)C(=O)N[C@@H](CO)C(=O)N[C@@H](CC(C)C)C(=O)N[C@@H](CCCCN)C(=O)N[C@@H](CCC(=O)O)C(=O)N[C@@H](CO)C(=O)NCC(N)=O [8a] ({FITC-βAla}-GEDEEELFRKAIELSLKESG-NH2),0.502
7,CC[C@H](C)[C@H](NC(=O)[C@H](CC(C)C)NC(=O)[C@H](CCC(=O)O)NC(=O)[C@H](CCC(=O)O)NC(=O)[C@H](CCC(=O)O)NC(=O)[C@H](CC(=O)O)NC(=O)[C@H](CCC(=O)O)NC(=O)CNC(=O)CCNC(=S)Nc1ccc2c(c1)C(=O)OC21c2ccc(O)cc2Oc2cc(O)ccc21)C(=O)N[C@@H](CCCNC(=N)N)C(=O)N[C@@H](CCCCN)C(=O)N[C@@H](C)C(=O)N[C@@H](CC(C)C)C(=O)N[C@@H](CCC(=O)O)C(=O)N[C@@H](CC(C)C)C(=O)N[C@@H](CO)C(=O)N[C@@H](CC(C)C)C(=O)N[C@@H](CCCCN)C(=O)N[C@@H](CCC(=O)O)C(=O)N[C@@H](CO)C(=O)NCC(N)=O [9a] ({FITC-βAla}-GEDEEELIRKALELSLKESG-NH2),0.693
8,CC[C@H](C)[C@H](NC(=O)[C@H](C)NC(=O)[C@H](CCCCN)NC(=O)[C@H](CCCNC(=N)N)NC(=O)[C@@H](NC(=O)[C@H](CC(C)C)NC(=O)[C@H](CCC(=O)O)NC(=O)[C@H](CCC(=O)O)NC(=O)[C@H](CCC(=O)O)NC(=O)[C@H](CC(=O)O)NC(=O)[C@H](CCC(=O)O)NC(=O)CNC(=O)CCNC(=S)Nc1ccc2c(c1)C(=O)OC21c2ccc(O)cc2Oc2cc(O)ccc21)[C@@H](C)CC)C(=O)N[C@@H](CCC(=O)O)C(=O)N[C@@H](CCC(=O)O)C(=O)N[C@@H](CO)C(=O)N[C@@H](CC(C)C)C(=O)N[C@@H](CCCCN)C(=O)N[C@@H](CCC(=O)O)C(=O)N[C@@H](CO)C(=O)NCC(N)=O [10a] ({FITC-βAla}-GEDEEELIRKAIEESLKESG-NH2),-0.072
9,CC[C@H](C)[C@H](NC(=O)[C@H](C)NC(=O)[C@H](CCCCN)NC(=O)[C@H](CCCNC(=N)N)NC(=O)[C@@H](NC(=O)[C@H](CC(C)C)NC(=O)[C@H](CCC(=O)O)NC(=O)[C@H](CCC(=O)O)NC(=O)[C@H](CCC(=O)O)NC(=O)[C@H](CC(=O)O)NC(=O)[C@H](CCC(=O)O)NC(=O)CNC(=O)CCNC(=S)Nc1ccc2c(c1)C(=O)OC21c2ccc(O)cc2Oc2cc(O)ccc21)[C@@H](C)CC)C(=O)N[C@@H](CCC(=O)O)C(=O)N[C@@H](CC(C)C)C(=O)N[C@@H](CO)C(=O)N[C@@H](CCC(=O)O)C(=O)N[C@@H](CCCCN)C(=O)N[C@@H](CCC(=O)O)C(=O)N[C@@H](CO)C(=O)NCC(N)=O [11a] ({FITC-βAla}-GEDEEELIRKAIELSEKESG-NH2),1.08

# Same assay, conditions: relative to 1a, from FP Kd
row,Compound,additional binding energy [kJ mol^–1]
1,CC[C@H](C)[C@H](NC(=O)[C@H](C)NC(=O)[C@H](CCCCN)NC(=O)[C@H](CCCNC(=N)N)NC(=O)[C@@H](NC(=O)[C@H](CC(C)C)NC(=O)[C@H](CCC(=O)O)NC(=O)[C@H](CCC(=O)O)NC(=O)[C@H](CCC(=O)O)NC(=O)[C@H](CC(=O)O)NC(=O)[C@H](CCC(=O)O)NC(=O)CNC(=O)CCNC(=S)Nc1ccc2c(c1)C(=O)OC21c2ccc(O)cc2Oc2cc(O)ccc21)[C@@H](C)CC)C(=O)N[C@@H](CCC(=O)O)C(=O)N[C@@H](CCC(=O)O)C(=O)N[C@@H](CO)C(=O)N[C@@H](CC(C)C)C(=O)N[C@@H](CCCCN)C(=O)N[C@@H](CCC(=O)O)C(=O)N[C@@H](CO)C(=O)NCC(N)=O [10a] ({FITC-βAla}-GEDEEELIRKAIEESLKESG-NH2),0.3
